Reference: patent publication US20250281465A1, “MOLECULES THAT ENHANCE EXTRACELLULAR VESICLE RELEASE” (priority 2022, published 2025)
Entries after “also recorded” stand apart in the source; their conditions may differ.

How the values were obtained:
mBMDCs [1] = test: Intracellular Ca2+ influx (Fura-2/Fura-8) in mBMDCs; format: cell-based, mouse; conditions: for intracellular Ca^2+ influx in mBMDCs (Fura-8): 2 and 10 μM, 25 minutes
mBMDC = test: Ca2+ add-back assay in mBMDC; format: cell-based, mouse; conditions: for intracellular Ca^2+ after adding Ca^2+ in the medium: Ca^2+ 1.8 mM added at 15 minutes; for intracellular Ca^2+ level without extracellular Ca^2+: Fura-8-loaded mBMDC, 2 μM, 10 μM, 15 minutes, absence of extracellular Ca^2+
Description: (§1) FIGS. 1A-1D. Intracellular Ca^2+ influx screening of 84 HTS hit candidate compounds. (A) THP-1 cells were loaded with the ratiometric Ca^2+ indicator, Fura-2, and treated with lonomycin (ION, 1 μM), Thapsigargin (1 μM), or 84 hit candidate compounds (10 μM) for 25 minutes. Data are presented as the area under the curve (AUG) of OD340/380 ratios corresponding to the intracellular Ca^2+ kinetics. The baseline-subtracted AUG was calculated using GraphPad Prism (GraphPad Software, San Diego, CA). (B) Ca^2+ mobilization by compound #634. mBMDCs were loaded with the ratiometric Ca^2+ indicator, Fura-8, and treated with ION (1 μM), or #634 (2 and 10 μM) for 25 minutes. The dashed line indicates the timing of compounds added. The data shown are representative of three independent experiments showing similar results. (C) Ca^2+ add-back assay. Fura-8-loaded mBMDC were treated with ION (1 μM), or compound #634 (2 μM, 10 μM) for 15 minutes in the absence of extracellular Ca^2+, and then Ca^2+ (final 1.8 mM) was added at 15 minutes. Data shown are representative of three independent experiments showing similar results. (D) C57BL/6 mice (n=5/group) were intramuscularly immunized with ovalbumin (OVA, 20 μg/mouse) adjuvanted with compound #634 (200 nmol/mouse), or Veh (10% DMSO) on days 0 and 21 and bled on day 28. OVA-specific IgGI and IgG2c levels in sera were determined by ELISA. **p<0.01, ***p<0.001, ns (not significant) by KruskalWallis tests with Dunn's post hoc test vs. Veh.
FIGS. 18A-18C. Compound 634 induces intracellular Ca^2+ levels in mBMDCs. (A) Intracellular Ca^2+ influx levels of the top eight compounds. THP-1 cells were loaded with the ratiometric Ca^2+ indicator, Fura-2, and treated with ION (1 μM), TG (1 μM), or test compounds (5 μM). The time-response pattern of intracellular Ca^2+ levels was recorded for 25 minutes. AUC of OD340/380 ratios corresponds to the intracellular Ca^2+ kinetics, and the baseline-subtracted AUC was calculated by GraphPad Prism. […] (B) Ca^2+ mobilization by compounds 456 and 634 in mBMDCs. mBMDCs were loaded with Fura-8 and treated with ION (1 μM), or 634 and 456 (10 μM) for 25 minutes. The dashed line indicates the timing of compounds added. The data shown are representative of three independent experiments showing similar results. (C) Ca^2+ add-back assay. Fura-8-loaded mBMDC were treated with ION (1 μM) or compound 634 (2 μM, 10 μM) for 15 minutes in the absence of extracellular Ca^2+, and then Ca^2+ (final 1.8 mM) was added at 15 minutes. The data shown are representative of three independent experiments showing similar results.

mBMDCs [2] = test: EV release from mBMDCs (differential ultracentrifugation, MRPS); conditions: for number of EV particles released in the culture supernatant: 46-48 h, vs Veh
THP-1 cells = test: Intracellular Ca2+ influx screening (Fura-2) in THP-1 cells; format: cell-based, human
Description: as §1
FIGS. 18A-18C. Compound 634 induces intracellular Ca^2+ levels in mBMDCs. […] The time-response pattern of intracellular Ca^2+ levels was recorded for 25 minutes. AUC of OD340/380 ratios corresponds to the intracellular Ca^2+ kinetics, and the baseline-subtracted AUC was calculated by GraphPad Prism. […]
FIGS. 24A-24B. […] The time-response pattern of intracellular Ca^2+ levels was recorded with a plate reader for 25 minutes. (A) The AUC of OD340/380 ratios corresponds to the intracellular Ca^2+ kinetics and the baseline-subtracted AUC was calculated by GraphPad Prism (FIG. 36). […]

CCOC(=O)c1c(NS(=O)(=O)c2cccc3c2N=S=N3)sc(C)c1C [#634, ethyl 2-(benzo[c][1,2,5]thiadiazole-4-sulfonamido)-4,5-dimethylthiophene-3-carboxylate]
intracellular Ca^2+ influx in mBMDCs (Fura-8) (mBMDCs [1]): rapidly increased intracellular Ca^2+ | time intracellular Ca^2+ increase was sustained (mBMDCs [1]; Fura-8 assay): at least 25 min | intracellular Ca^2+ after adding Ca^2+ in the medium (mBMDC): intracellular Ca^2+ influx was restored | intracellular Ca^2+ level without extracellular Ca^2+ (mBMDC): did not increase intracellular Ca^2+ levels without extracellular Ca^2+ | release of particles of diameter less than 150 nm (mBMDCs [2]; 10 μM): significantly enhanced | number of EV particles released in the culture supernatant (mBMDCs [2]; 10 μM): increased the number of EV particles released | intracellular Ca^2+ increase (Fura-2 assay) (THP-1 cells; hit candidate compounds 10 μM, 25 minutes, vs vehicle control (DMSO)): higher intracellular Ca^2+ increase than vehicle control

CCOC(=O)c1c(NS(=O)(=O)c2cccc3nsnc23)sc(C)c1C [compound 634, Ethyl 2-(benzo[c][1,2,5]thiadiazole-4-sulfonamido)-4,5-dimethylthiophene-3-carboxylate]
intracellular Ca^2+ influx by 634 and its SAR analogs (Fura-2) (mBMDCs [1]; 10 μM, vs Veh 0.5% DMSO / #634): Ca^2+ influx positive | intracellular Ca^2+ influx in mBMDCs (Fura-8) (mBMDCs [1]): induced Ca^2+ influx in mBMDCs; also recorded: comparable to ionomycin | intracellular Ca^2+ after adding Ca^2+ in the medium (mBMDC): intracellular Ca^2+ levels were restored | intracellular Ca^2+ level without extracellular Ca^2+ (mBMDC): did not change the intracellular Ca^2+ concentration | number of EV particles released in the culture supernatant (mBMDCs [2]; 10 μM): significantly increased the number of EVs released | increase of the number of EVs released compared to Veh control (mBMDCs [2]; 634 10 μM, 48 hours, p<0.05): 45% | intracellular Ca^2+ (relative AUC of OD340/380) (THP-1 cells; validation assay, 5 μM, vs Veh 0.5% DMSO): significantly increased intracellular Ca^2+
